Read-outs that look alike come from different tables or passages of the source. One block for each molecule: values may come before it.
Assays:
[1] = PK in fasted male Sprague Dawley rats, IV administration of prodrug; format: in vivo
Procedure: (§1) Blood samples were collected at pre-determined time points including a 0 h time point and usually between 7 and 8 additional time points not exceeding a 24 h period.
(§2) Plasma samples were extracted and analyzed using the methods described in Plasma Sample Extraction and Analysis. All data are expressed as ng/mL of the free base. Samples that were below the limit of quantification (0.5 ng/mL) were not used in the calculation of averages.
Pharmacokinetic parameters were calculated from the time course of the plasma concentrations. Pharmacokinetic parameters were determined with Phoenix Winnonlin (v6.3) software using a non-compartmental model. The maximum plasma concentration (Cmax) and time to the maximum plasma concentration (Tmax) of the compound of the disclosure were observed from the data. The area under the concentration-time curve (AUC) of the compound of the disclosure was calculated using the trapezoidal formula with calculation to the last quantifiable data point, and to infinity if applicable. Plasma half-life (t1/2) was calculated from 0.693/slope of the terminal elimination phase. Mean residence time, MRT, was calculated by dividing the area under the moment curve (AUMC) by the AUC. Any samples below the limit of quantitation (0.5 ng/mL) were treated as zero for pharmacokinetic data analysis. […]

[2] = PK in fasted male Sprague Dawley rats, PO administration of prodrug; format: in vivo; conditions: for Prodrug AUGlast, Mean: PO 5 mg/kg
Procedure: as §1, §2
Pharmacokinetic parameters were calculated from the time course of the plasma concentrations. Pharmacokinetic parameters were determined with Phoenix Winnonlin (v6.3) software using a non-compartmental model. The maximum plasma concentration (Cmax) and time to the maximum plasma concentration (Tmax) of the compound of the disclosure were observed from the data. The area under the concentration-time curve (AUC) of the compound of the disclosure was calculated using the trapezoidal formula with calculation to the last quantifiable data point, and to infinity if applicable. Plasma half-life (t1/2) was calculated from 0.693/slope of the terminal elimination phase. Mean residence time, MRT, was calculated by dividing the area under the moment curve (AUMC) by the AUC. Any samples below the limit of quantitation (0.5 ng/mL) were treated as zero for pharmacokinetic data analysis.
Plasma Sample Extraction and Analysis: Analytical stock solutions (1.00 mg/mL of the free compound of the disclosure) were prepared in DMSO. Standards were prepared in diluted matrix containing 1 part 10% formic acid and 9 parts Sprague-Dawley rat plasma containing sodium heparin as the anticoagulant (pre-diluted with 1 part of 0.5M citric acid and 9 parts whole blood). Working solutions were prepared in 50:50 acetonitrile:water. Working solutions were then added to plasma to make calibration standards to final concentrations of 1000, 500, 100, 50, 10, 5, 1, and 0.5 ng/mL. Standards contained both the test article and riluzole. Standards were treated identically to the study samples.
Sample Extraction: Plasma samples were extracted via acetonitrile precipitation on a Tomtec Quadra 96-Model 320 liquid handling system in a 96-well plate format.

[3] = system: Melanoma C8161 cells; assay: Inhibition of human melanoma cell xenograft growth; format: in vivo; conditions: C8161 xenograft in nude mice, P<0.01
Procedure: Mice were treated every day for 21 days, and tumor sizes were measured twice weekly with a Vernier caliper.

[4] = system: patients diagnosed with Alzheimer's disease of mild-to-moderate severity; conditions: for CDR01-Sum of Boxes, Model Estimates, Difference LSMean (SE) / ADAS-Cog Total Score, Model Estimates, Difference LSMean (SE) / Hippocampal Volume Change, Model Estimates, Difference LSMean (SE): placebo vs troriluzole; for Hippocampal Volume Change, Model Estimates, LSMean (SE) / Hippocampal Volume Change, Model Estimates, Difference LSMean (SE) / Hippocampal Volume Change, Analysis Value, Mean (SD) / Hippocampal Volume Change, Analysis Value, Median: volumetric MRI;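 on all read-outs here: multicenter parallel-group study, AD severity graded by Mini-Mental State Examination score (mild 20–24, moderate 14–19)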
Procedure: This is a phase 2 multi-center, randomized, double blind, placebo-controlled, parallel group study in patients with mild to moderate Alzheimer's disease.
Participants will be randomized to one of two groups: 280 mg of BHV-4157 or placebo. […] Treatment duration is 48 weeks (12 months). There is a screening period of up to 42 days and a 4-week post-treatment observation period.
The CDR-SOB (Hughes, Berg, Danziger, Coben, & Martin, 1982) is a validated composite rating of cognition and everyday functioning used in longitudinal AD research which incorporates both informant input and direct assessment of performance. It assesses through semi structured interview 3 cognitive domains including memory, orientation, and judgement/problem solving and 3 everyday functional domains including community affairs, home and hobbies and personal care. There are 5 levels of impairment from none CDR=0 to severe CDR=3. The individual domain scores are added to create a sum of the box scores.

[5] = system: patients with Stage III and IV melanoma; conditions: after only 14 days of treatment, cited from earlier work
[6] = fasted male Sprague Dawley rats, prodrug in plasma
[7] = Mild AD Patients Only, Week 48, troriluzole 280 mg once daily, N 62
[8] = Mild AD Patients Only, Week 48, troriluzole 280 mg once daily, N 65
[9] = mild-to-moderate AD, Week 48, troriluzole 280 mg once daily, N 118
[10] = mild-to-moderate AD, Week 48, troriluzole 280 mg once daily, N 119
[11] = Mild AD Patients Only, Week 48, troriluzole 280 mg once daily, N 48
[12] = mild-to-moderate AD, Week 48, troriluzole 280 mg once daily, N 87

Half life on conversion to Riluzole [1]: moderate to long half life | bioavailability ([2]; rat, plasma, fasted male Sprague Dawley rats, PO 14 mg/kg, prodrug, read-out: Example 125 % F (bioavailability)): 26% | AUC(0-inf) ([2]; rat, fasted male Sprague Dawley rats, PO 14 mg/kg, prodrug in plasma, read-out: Example 125 AUCinf, Mean): 2.29 µg·h/mL | AUC(0-t) ([2]; rat, fasted male Sprague Dawley rats, PO 14 mg/kg, prodrug in plasma, read-out: Example 125 AUClast, Mean): 2.26 µg·h/mL | Cmax ([2]; rat, fasted male Sprague Dawley rats, PO 14 mg/kg, prodrug in plasma, read-out: Example 125 Cmax, Mean): 0.213 µg/mL | half-life ([2]; rat, fasted male Sprague Dawley rats, PO 14 mg/kg, prodrug in plasma, read-out: Example 125 t1/2, Mean (converted)): 3.8 h | Tmax ([2]; rat, fasted male Sprague Dawley rats, PO 14 mg/kg, prodrug in plasma, read-out: Example 125 tmax, Mean): 1.8 h | Half life on conversion to Riluzole ([2]; rats, oral administration): long half life | Oral bioavailability on conversion to Riluzole ([2]; rats, oral administration): high oral bioavailability
SMILES: CN(CC(=O)Nc1nc2ccc(OC(F)(F)F)cc2s1)C(=O)CNC(C)(C)C [Example 125, 2-(tert-butylamino)-N-methyl-N-(2-oxo-2-((6-(trifluoromethoxy)benzo[d]thiazol-2-yl)amino)ethyl)acetamide]
Tumor volume vs untreated or vehicle-treated controls ([3]; 4.9 mg/kg (threefold lower in molar terms) p.o. gavage every day for 21 days): significant reduction in tumor volume | Tumor volume vs untreated or vehicle-treated controls ([3]; 14.6 mg/kg (equimolar to riluzole) p.o. gavage every day for 21 days): significant reduction in tumor volume

Prodrug AUGlast, Mean [2, 6]: 0.0009 µg·h/mL
SMILES: CN(CC(=O)Nc1nc2ccc(OC(F)(F)F)cc2s1)C(=O)CNC(=O)CN [Example 204, 2-Amino-N-{[methyl({[6-(trifluoromethoxy)-1,3-benzothiazol-2-yl]carbamoyl}methyl)carbamoyl]methyl}acetamide]
Safety and tolerability ([4]; 280 mg once daily, safety profile consistent with previous studies): relatively well tolerated | CDR01-Sum of Boxes, Model Estimates, LSMean (SE) ([4]; Mild AD Patients Only, Week 48, change from baseline, 95% CI (1.1, 2.2)): 1.7 (0.29) | ADAS-Cog Total Score, Model Estimates, LSMean (SE) ([4]; Mild AD Patients Only, Week 48, change from baseline, 95% CI (2.7, 5.7)): 4.2 (0.76) | CDR01-Sum of Boxes, Model Estimates, Difference LSMean (SE) ([4]; Mild AD Patients Only, Week 48, 95% CI (−1.1, 0.5), P-Value 0.4347): −0.3 (0.40) | ADAS-Cog Total Score, Model Estimates, Difference LSMean (SE) ([4]; Mild AD Patients Only, Week 48, 95% CI (−1.4, 2.7)): 0.7 (1.02) | CDR01-Sum of Boxes, Analysis Value, Mean (SD) [4, 7]: 7.1 (2.79) | CDR01-Sum of Boxes, Analysis Value, Median [4, 7]: 6.5 | CDR01-Sum of Boxes, Change from Baseline, Mean (SD) [4, 7]: 1.4 (2.06) | CDR01-Sum of Boxes, Change from Baseline, Median [4, 7]: 1.0 | ADAS-Cog Total Score, Analysis Value, Mean (SD) [4, 8]: 26.2 (8.22) | ADAS-Cog Total Score, Analysis Value, Median [4, 8]: 26.0 | ADAS-Cog Total Score, Change from Baseline, Mean (SD) [4, 8]: 3.9 (5.90) | ADAS-Cog Total Score, Change from Baseline, Median [4, 8]: 4.0 | NPI across subgroups ([4]; Week 48, only mild AD, only moderate AD, only ApoE4 positive, only ApoE4 negative patients): numerical differences of a potential benefit | ADAS-Cog11 score, difference placebo vs troriluzole ([4]; mild AD, after 48 weeks, 95% CI −1.4, 2.7, p-value=0.5233): 0.7 | LS mean percent deformation change from baseline hippocampal volume ([4]; mild AD, after 48 weeks, n=48, 95% CI −1.6, −0.6, placebo −1.6%): −1.1% | LS mean change from baseline on the NPI score ([4]; mild AD, after 48 weeks, n=62, placebo 4.2 points): 2.1 points | LS mean change from baseline on the ADAS-Cog11 score ([4]; mild AD, after 48 weeks, n=65, 95% CI 2.7, 5.7, placebo 4.9 points): 4.2 points | CDR01-Sum of Boxes, Model Estimates, LSMean (SE) ([4]; mild-to-moderate AD, Week 48, change from baseline, 95% CI (1.7, 2.5)): 2.1 (0.21) | CDR01-Sum of Boxes, Model Estimates, Difference LSMean (SE) ([4]; mild-to-moderate AD, Week 48, 95% CI (−0.8, 0.3), P-Value 0.4474): −0.2 (0.28) | ADAS-Cog Total Score, Model Estimates, Difference LSMean (SE) ([4]; mild-to-moderate AD, Week 48, 95% CI (−1.8, 1.8), P-Value 0.9809): 0.0 (0.93) | CDR01-Sum of Boxes, Analysis Value, Mean (SD) [4, 9]: 8.3 (3.24) | CDR01-Sum of Boxes, Analysis Value, Median [4, 9]: 8.0 | CDR01-Sum of Boxes, Change from Baseline, Mean (SD) [4, 9]: 1.9 (2.37) | CDR01-Sum of Boxes, Change from Baseline, Median [4, 9]: 2.0 | ADAS-Cog Total Score, Analysis Value, Mean (SD) [4, 10]: 31.5 (10.82) | ADAS-Cog Total Score, Analysis Value, Median [4, 10]: 30.0 | ADAS-Cog Total Score, Charge from Baseline, Mean (SD) [4, 10]: 0.8 (7.40) | ADAS-Cog Total Score, Charge from Baseline, Median [4, 10]: 0.0 | NPI score, difference troriluzole vs placebo ([4]; mild-to-moderate AD, after 48 weeks, 95% CI −4.08, 1.10, p-value=0.258): −1.5 | LS mean change from baseline on the NPI score ([4]; mild-to-moderate AD, after 48 weeks, n=120, placebo 3.8 points): 2.3 points | Hippocampal Volume Change, Model Estimates, LSMean (SE) ([4]; Mild AD Patients Only, Week 48, 95% CI (−1.6, −0.6)): −1.1 (0.27) | Hippocampal Volume Change, Model Estimates, Difference LSMean (SE) ([4]; Mild AD Patients Only, Week 48, 95% CI (−1.2, 0.3), P-Value 0.2240): −0.5 (0.38) | Hippocampal Volume Change, Analysis Value, Mean (SD) [4, 11]: −1.1 (1.61) | Hippocampal Volume Change, Analysis Value, Median [4, 11]: −0.9 | Hippocampal Volume Change, Model Estimates, LSMean (SE) ([4]; mild-to-moderate AD, Week 48, 95% CI (−1.4, −0.7)): −1.1 (0.18) | Hippocampal Volume Change, Model Estimates, Difference LSMean (SE) ([4]; mild-to-moderate AD, Week 48, 95% CI (−0.6, 0.5), P-Value 0.8670): 0.0 (0.26) | Hippocampal Volume Change, Analysis Value, Mean (SD) [4, 12]: −1.1 (1.50) | Hippocampal Volume Change, Analysis Value, Median [4, 12]: −0.9

Prodrug AUGlast, Mean [2, 6]: 0.0166 µg·h/mL
SMILES: CN(CC(=O)Nc1nc2ccc(OC(F)(F)F)cc2s1)C(=O)CNC1CCNCC1 [Example 216, N-methyl-2-[(piperidin-4-yl)amino]-N-({[6-(trifluoromethoxy)-1,3-benzothiazol-2-yl]carbamoyl}methyl)acetamide]

SMILES: Nc1nc2ccc(OC(F)(F)F)cc2s1 [riluzole]
Patients with clinical or radiologic evidence of tumor response ([5]; listed as Riluzole): four of 12 | Patients with clinical or radiologic evidence of tumor response [5]: four of twelve

— patent publication US20210228549A1 (Biohaven Therapeutics Ltd., priority 2015, published 2021)
